Results reported in patent US7538216B2, “Guanidino phenylalanin compounds used as urokinase inhibitors” (Wilex AG, priority 2002, dated 2009).
Structures can show the parent of a compound that is named as a salt.

Legend:
Type in all cases: biochemical
[1] = target: T1, sc-urokinase (Homo sapiens, UniProt P00749); test: In-vitro inhibition of urokinase (chromogenic substrate, Dixon); conditions: 25° C, pH 8.0; mean of at least 3 determinations
T1 construct: purchased Ribosepharm GmbH, Haan, Germany
Procedure: (§1) In order to determine the activity of the inhibitor, 200 μl of Tris buffer (0.05 mol/l, containing the inhibitor, 0.154 mol of NaCl/l, 5% ethanol, pH 8.0), 25 μl of substrate (Pefachrome UK or Bz-βAla-Gly-Arg-pNA in H2O; Pentapharm Ltd., Basle, Switzerland) and 50 μl of sc-urokinase (Ribosepharm GmbH, Haan, Germany) were incubated at 25° C. After 3 min, the reaction was terminated by adding 25 μl of acetic acid (50%) and the absorption was determined at 405 nm using a Microplate Reader (MR 5000, Dynatech, Denkendorf, Germany). The Ki values were determined in accordance with Dixon by means of linear regression using a computer program. The Ki values are the means of at least 3 determinations; the standard deviation was less than 25%.

[2] = target: thrombin (Homo sapiens, UniProt P00734); test: In-vitro inhibition of serine proteases of the trypsin type: thrombin
Procedure: as §1
(§2) The inhibitory effect for the enzymes employed was determined in accordance with the principle described in Example 3.

[3] = target: T2, plasmin (Homo sapiens, UniProt P00747); test: In-vitro inhibition of serine proteases of the trypsin type: plasmin
T2 construct: uPA mediates the proteolytic cleavage of plasminogen to give plasmin
T2 sequence (P00747 581-810 limits assumed, species assumed): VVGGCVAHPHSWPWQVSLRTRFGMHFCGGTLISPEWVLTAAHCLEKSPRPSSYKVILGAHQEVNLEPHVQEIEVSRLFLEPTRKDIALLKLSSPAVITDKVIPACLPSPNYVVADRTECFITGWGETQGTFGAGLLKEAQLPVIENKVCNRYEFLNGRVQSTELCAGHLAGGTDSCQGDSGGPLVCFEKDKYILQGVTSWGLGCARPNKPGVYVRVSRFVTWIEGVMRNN
T2 sequence (P00747 97-580 partner limits assumed, species assumed): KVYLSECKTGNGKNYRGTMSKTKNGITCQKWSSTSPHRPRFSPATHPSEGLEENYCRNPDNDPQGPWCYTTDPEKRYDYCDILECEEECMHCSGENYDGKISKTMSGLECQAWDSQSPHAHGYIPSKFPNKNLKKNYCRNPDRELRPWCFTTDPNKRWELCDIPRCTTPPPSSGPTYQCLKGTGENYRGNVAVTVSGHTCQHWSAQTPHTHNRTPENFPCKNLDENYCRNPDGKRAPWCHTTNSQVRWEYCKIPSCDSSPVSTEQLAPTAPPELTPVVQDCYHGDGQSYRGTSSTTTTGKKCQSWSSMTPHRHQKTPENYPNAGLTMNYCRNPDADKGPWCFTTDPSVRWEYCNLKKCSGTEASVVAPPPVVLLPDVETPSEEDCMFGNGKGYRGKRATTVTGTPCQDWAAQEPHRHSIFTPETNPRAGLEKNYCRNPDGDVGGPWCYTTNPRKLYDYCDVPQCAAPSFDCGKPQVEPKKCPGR
Procedure: as §1, §2

Ki [1]: 0.47 µM | Ki [2]: ≥ 12 µM | Ki [3]: 3.8 µM
SMILES: CCOC(=O)N1CCN(C(=O)[C@H](Cc2cccc(NC(=N)N)c2)NS(=O)(=O)c2c(C(C)C)cc(C(C)C)cc2C(C)C)CC1 [Example 1, Nα-2,4,6-triisopropylphenylsulfonyl-3-guanidino-(L)-phenylalanine-4-ethoxycarbonylpiperazine hydrochloride]
